Experimental data from article PMC2770570 (BMC Cancer, 2009).
“Also recorded” adds a separate entry of the source. Where a name gives a salt, the structure may show the parent alone.

How the values were obtained:
[1] = system: KAT-18 cells; experiment: DNA synthesis (BrdU incorporation) in KAT-18 cells; type: cell-based, human; details: 10^-6 M, 72 h; 30 μM BrdU 3 h prior to fixing (Fig. 5)
Method: To examine DNA synthesis, KAT-18 cells were seeded onto 22 mm diameter coverglasses placed in 6-well plates (3 × 10^3 cells/coverglass), and treated with compounds for 72 h; media and drugs were replaced daily. Three h prior to fixing cells, 30 μM BrdU (Sigma Chemicals, Indianapolis, IN) was added to cultures. Cells were rinsed, fixed in 10% neutral buffered formalin for 10 min, and stained with antibodies to BrdU (anti-BrdU-BOD, Roche/Invitrogen). At least 1000 cells/treatment using at least 2 coverglasses/treatment were counted, and the number of positive cells recorded. Labeling indexes were calculated as the number of positive stained cells divided by total cells.

[2] = system: KTC-1 cells; experiment: Cell proliferation assay (cell number), KTC-1 papillary thyroid cancer cells; type: cell-based, human; details: 10^-6 M, 72 h (Fig. 6B)
Method: (§1) The ATC cell line, KAT-18, was generously provided by Dr. K.B. Ain, The University of Kentucky, Lexington, KY) and the FTC cell line, WRO 82-1, was established by Dr. G. Juillard (University of California at Los Angeles, CA). The poorly differentiated papillary thyroid carcinoma cell line, KTC-1 [31], was a generous gift of Dr. James A. Fagin (Memorial Sloan Kettering Cancer Center, New York, NY). The KAT-18 cells were grown in phenol-red free RPMI 1640 media (GIBCO/Invitrogen, Carlsbad, CA), and the WRO 82-1 and KTC-1 cells were grown in standard RPMI 1640 media supplemented with 1% non-essential amino acids. All media were supplemented with 10% fetal calf serum, 2 mM L-glutamine, 1.2% sodium bicarbonate, and antibiotics (5,000 Units/ml penicillin, 5 mg/ml streptomycin, 10 mg/ml neomycin). The cell cultures were maintained in a humidified atmosphere of 5% CO2 at 37°C. […]
(§2) Cells were seeded at equivalent amounts into 6- or 24-well plates (Falcon) and counted 24 h later (time 0) to determine plating efficiency. […] Cells were harvested by trypsinization with 0.25% trypsin/0.53 mM EDTA, centrifuged, and counted with a hemacytometer. Cell viability was determined by trypan blue staining. At least two aliquots per well, and 2-4 wells/treatment, were counted for each experiment. […]

[3] = system: KAT-18 cells; experiment: Necrosis (trypan blue) in KAT-18 cells; type: cell-based, human; details: data not shown
Method: Necrosis was recorded as the number of positive trypan blue cells in any cell growth assay.

[4] = system: KAT-18 cells; experiment: Growth of KAT-18 cells transfected with OGFr siRNA or scrambled siRNA; type: cell-based, human
Method: The OGFr-targeted siRNAs (antisense:5'-[…]-3'; sense: 5'-[…]-3') were designed and obtained as ready-annealed, purified duplex probes from Ambion (Austin, TX). For transfection, 5 × 10^4 KAT-18 cells per well were seeded in 6-well plates containing 1 ml of serum-containing media without antibiotics. In each well, 20 nM OGFr-siRNA or control siRNA solutions in serum-free media were added. […] At 72 h cells were collected for computing growth. Two independent experiments were conducted. The scrambled siRNAs were purchased from Ambion.

[5] = system: KAT-18 cells; experiment: Apoptosis (TUNEL) in KAT-18 cells; type: cell-based, human; details: 72 h, data not shown
Method: Cells were harvested after 72 h of drug treatment, and TUNEL assays conducted according to manufacturer's recommendations.

[6] = system: WRO 82-1 cells; experiment: Cell proliferation assay (cell number), WRO 82-1 follicular thyroid cancer cells; type: cell-based, human; details: 10^-6 M, 72 h (Fig. 7B)
Method: as §1, §2

[7] = system: KAT-18 cells; experiment: Cell proliferation assay (cell number), KAT-18 anaplastic thyroid cancer cells; type: cell-based, human
Method: The ATC cell line, KAT-18, was generously provided by Dr. K.B. Ain, The University of Kentucky, Lexington, KY) and the FTC cell line, WRO 82-1, was established by Dr. G. Juillard (University of California at Los Angeles, CA). The poorly differentiated papillary thyroid carcinoma cell line, KTC-1 [31], was a generous gift of Dr. James A. Fagin (Memorial Sloan Kettering Cancer Center, New York, NY). […] The cell cultures were maintained in a humidified atmosphere of 5% CO2 at 37°C. All cell lines were free of Mycoplasma and confirmed by single nucleotide polymorphism array analysis to be unique follicular cell-derived thyroid cancer cell lines.
Media and compounds were replaced daily. […] Cell viability was determined by trypan blue staining. At least two aliquots per well, and 2-4 wells/treatment, were counted for each experiment. Two to five experiments were conducted for each measure performed.

[8] = molecular target: T1, OGFr (Homo sapiens, UniProt Q9NZT2); experiment: receptor binding assay
T1 chain: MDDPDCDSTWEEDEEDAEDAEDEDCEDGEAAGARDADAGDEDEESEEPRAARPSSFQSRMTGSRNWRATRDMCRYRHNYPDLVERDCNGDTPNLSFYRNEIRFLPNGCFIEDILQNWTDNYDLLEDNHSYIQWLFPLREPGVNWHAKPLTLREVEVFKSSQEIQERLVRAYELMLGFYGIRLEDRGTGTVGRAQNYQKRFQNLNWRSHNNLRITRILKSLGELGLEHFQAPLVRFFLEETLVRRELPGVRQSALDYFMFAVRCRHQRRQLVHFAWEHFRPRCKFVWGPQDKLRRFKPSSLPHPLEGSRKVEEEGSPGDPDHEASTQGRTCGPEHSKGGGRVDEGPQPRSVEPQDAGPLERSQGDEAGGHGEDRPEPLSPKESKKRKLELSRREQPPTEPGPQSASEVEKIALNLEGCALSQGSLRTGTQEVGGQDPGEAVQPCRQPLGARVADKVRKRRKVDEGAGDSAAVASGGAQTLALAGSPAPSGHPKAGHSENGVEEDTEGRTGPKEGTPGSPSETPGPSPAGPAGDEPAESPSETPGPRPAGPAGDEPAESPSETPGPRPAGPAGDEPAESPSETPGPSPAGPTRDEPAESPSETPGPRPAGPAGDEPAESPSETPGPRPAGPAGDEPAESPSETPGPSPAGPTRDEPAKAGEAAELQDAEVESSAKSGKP

[9] = 10^-6 M NTX, cultures receiving OGFr siRNA (Fig. 4C)
[10] = 10^-6 M, 72 h, opioid specificity experiment (Fig. 3A)
[11] = 10^-6 M OGF, cells transfected with OGFr siRNA (Fig. 4C)

O=C1CC[C@@]2(O)[C@H]3Cc4ccc(O)c5c4[C@@]2(CCN3CC2CC2)[C@H]1O5 [NTX, naltrexone]
increase in DNA synthesis (BrdU) vs control [1]: 25%
increase in cell number from control [2]: 30%
necrosis [3]: negligible
number of necrotic cells vs control [3]: No differences in the number of apoptotic or necrotic cells
cell number vs OGFr siRNA plus vehicle [4, 9]: did not differ from cells receiving OGFr siRNA plus vehicle
increase in cell number vs wildtype cells [4, 9]: 70%
increase in cell number vs wildtype cells receiving vehicle ([4]; 10^-6 M NTX, untreated and scrambled siRNA cultures (Fig. 4C)): 32%
apoptosis relative to positive control samples [5]: negligible
number of apoptotic cells vs control [5]: No differences in the number of apoptotic or necrotic cells
increase in cell number from control [6]: 30%

CN1CC[C@]23c4c5ccc(O)c4O[C@H]2[C@@H](O)C=C[C@H]3[C@H]1C5 [morphine, morphine sulfate]
effect on cell proliferation vs control [7, 10]: Only OGF altered cell proliferation significantly

C=CCN1CC[C@]23c4c5ccc(O)c4O[C@H]2C(=O)CC[C@@]3(O)[C@H]1C5 [naloxone]
effect of naloxone on the OGF-induced depression in cell acquisition ([7]; KAT-18 cells): blocked the depression in cell acquisition
change in cell number vs control ([7]; naloxone 10^-6 M with or without OGF 10^-6 M, 72 h (Fig. 2C)): no change in cell number; also recorded: did not have any influence on cell replication

[D-Ala^2, MePhe^4, Glycol^5]-enkephalin [DAMGO]
effect on cell proliferation vs control [7, 10]: Only OGF altered cell proliferation significantly

[D-Pen^2,5]-enkephalin [DPDPE]
effect on cell proliferation vs control [7, 10]: Only OGF altered cell proliferation significantly

[Met^5]-enkephalin [OGF]
decrease in proportion of BrdU labeled cells vs control [1]: 28%
reduction in cell number from control ([7]; 10^-4 M, 72 h, dose-response (Fig. 2A)): 38%
reduction in cell number from control ([7]; 10^-5 M, 72 h, dose-response (Fig. 2A)): 13%
reduction in cell number from control ([7]; 10^-6 M continuously, at 96 h (Fig. 2D)): 16%
reduction in cell number from control ([7]; 10^-6 M continuously, at 120 h (Fig. 2D)): 28%
reduction in cell number from control ([7]; 10^-6 M for 72 h, then media without OGF, at 96 h (Fig. 2D)): 6%
reduction in cell number from control ([7]; 10^-6 M for 72 h, then media without OGF, at 120 h (Fig. 2D)): 8%
reduction in cell number from control ([7]; 10^-6 M, 72 h, dose-response (Fig. 2A)): 14%
reduction in cell number from control ([7]; 10^-6 M, 72 h, naloxone experiment (Fig. 2C)): 20%
decrease in cell number from control [7, 10]: 33%
reduction in cell number from control ([7]; 10^-6 M, 72 h, reversibility study (Fig. 2D)): 22%
effect on cell number vs control ([7]; 10^-7 M, 72 h, dose-response (Fig. 2A)): no significant effect on cell number
duration of growth repression in presence of drug ([7]; KAT-18 cells): up to 120 h
time to observed growth repression after initiating drug exposure ([7]; KAT-18 cells): ≤ 24 h
maximum reduction in cell number ("by as much as") ([7]; KAT-18 cells, abstract): ≤ 38%
reduction in cell number from control [2]: 31%
necrosis [3]: negligible
number of necrotic cells vs control [3]: No differences in the number of apoptotic or necrotic cells
cell number, OGF vs sterile water [4, 11]: did not differ in cell number from each other
effect on cell number [4, 11]: no effect
reduction in cell number ([4]; 10^-6 M OGF, untransfected cultures and those transfected with scrambled siRNAs (Fig. 4C)): 30%
number of apoptotic cells vs control [5]: No differences in the number of apoptotic or necrotic cells
reduction in cell number from control [6]: 17%

dynorphin A1-8 (YGGFLRRI; Dynorphin A(1-8); UniProt P01213 207-214, looked up)
effect on cell proliferation vs control [7, 10]: Only OGF altered cell proliferation significantly

endomorphin 1
effect on cell proliferation vs control [7, 10]: Only OGF altered cell proliferation significantly

endomorphin 2
effect on cell proliferation vs control [7, 10]: Only OGF altered cell proliferation significantly

β-endorphin (YGGFMTSEKSQTPLVTLFKNAIIKNAYKKGE; Beta-endorphin; UniProt P01189 237-267, looked up)
effect on cell proliferation vs control [7, 10]: Only OGF altered cell proliferation significantly

YGGFM [opioid growth factor (OGF)]
Kd [8]: 3.5 nM
